# In paper PMC4499186, “Structure of the stationary phase survival protein YuiC from B.subtilis” (BMC Structural Biology, 2015):
# Biological target: T1, YuiC (degraded K32-E218) (Bacillus subtilis, UniProt O32108)
# T1 construct: mature protein K32-E218, signal peptide removed, E. coli Rosetta 2 (DE3), His-tag cut by TEV leaving GIDPFT; partially proteolysed at or close to R52; residues 72-217 modelled; domain-swapped dimer, site formed by both chains
# T1 sequence (O32108 32-218): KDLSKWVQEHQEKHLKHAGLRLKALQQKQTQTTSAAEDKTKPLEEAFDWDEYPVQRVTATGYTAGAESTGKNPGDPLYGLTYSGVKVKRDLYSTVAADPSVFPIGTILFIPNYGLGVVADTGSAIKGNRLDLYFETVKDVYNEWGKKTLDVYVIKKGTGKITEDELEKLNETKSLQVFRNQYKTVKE
# Test: X-ray crystal structure, […] Å
# Format: binding
# Conditions: 5 mM NAG in crystallisation, pH 6.0; bound at -2 site, one per chain
structure (smiles),measurement,value
"CC(=O)N[C@H]1C(O)O[C@H](CO)[C@@H](O)[C@@H]1O (stereo partly shown) [NAG, N-acetylglucosamine]","X-ray crystal structure, 1.21 Å",Crystallisation of YuiC in the presence of NAG gives a structure with a single
